Measurements reported in patent publication US5114918A, “Endothelin antagonistic cyclic pentapeptides” (Banyu Pharmaceutical Co., Ltd., priority 1989, dated 1992).
Numbered stars: 1 amine (or outer) side, 2 acyl side, 3 side chain; on linkers, the order of the positions; unused ones are H or OH. Square brackets hold non-standard residues; d marks the D form. Peptide text beside a SMILES is read from it. * marks the point of attachment. X6 = COC(=O)Cn1cc(C[C@@H](N[*:1])C(=O)[*:2])c2ccccc21; X4 = O=C1Nc2ccccc2C1C[C@@H](N[*:1])C(=O)[*:2]; dGly(2-thienyl) = N[C@@H](C(=O)O)c1cccs1; X5 = O=C([C@H](N[*:1])C1=CCC=CC1)[*:2]; dGly(cPent) = N[C@@H](C(=O)O)C1CCCC1; Met(O) = CS(=O)CC[C@H](N)C(=O)O; NMeM = CN[C@@H](CCSC)C(=O)O; dNle = CCCC[C@@H](N)C(=O)O; N(iPr)Gly = CC(C)NCC(=O)O; Orn = NCCC[C@H](N)C(=O)O; Nva = CCC[C@H](N)C(=O)O; Boc = CC(C)(C)OC(=O)*; Aib = CC(C)(N)C(=O)O; For = O=C*

What follows are compounds tested against T1, endothelin receptor (membrane of smooth muscle tissue of porcine aorta) (Sus scrofa, UniProt Q29010) (assay: Endothelin binding inhibition test (125I-endothelin-1, porcine aorta smooth muscle membrane)). Conditions: 1.1 μM of the test compound; porcine aorta smooth muscle membrane; 25° C, 4 hours.
T1 construct: from tissue; host or cells: smooth muscle tissue of porcine aorta (membrane fraction)
T1 sequence (Q29010 21-427): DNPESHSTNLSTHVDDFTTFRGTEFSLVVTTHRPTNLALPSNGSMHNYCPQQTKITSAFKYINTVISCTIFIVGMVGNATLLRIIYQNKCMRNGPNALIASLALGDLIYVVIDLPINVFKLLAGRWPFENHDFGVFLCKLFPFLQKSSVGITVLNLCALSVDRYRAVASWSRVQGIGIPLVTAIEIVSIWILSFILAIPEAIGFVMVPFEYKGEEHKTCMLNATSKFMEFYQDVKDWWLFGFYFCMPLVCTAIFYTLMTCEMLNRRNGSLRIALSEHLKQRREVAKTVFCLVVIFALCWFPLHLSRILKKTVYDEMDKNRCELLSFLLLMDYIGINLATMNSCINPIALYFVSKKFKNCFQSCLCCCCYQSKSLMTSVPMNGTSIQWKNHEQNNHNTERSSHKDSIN
Experimental: Endothelin binding inhibition test
The smooth muscle tissue of porcine aorta was homogenized in a buffer solution of 10 mM MOPS, pH 7.4, at 4° C. by a polytron. To the homogenate, sucrose was added to a concentration of 20%, and the mixture was centrifuged at 1,000×g for 15 minutes, and the supernatant was further centrifuged at 10,000×g for 15 minutes. The supernatant thereof was further centrifuged at 90,000×g for 40 minutes. The membrane precipitate thereby obtained was suspended in a buffer solution of 5 mM HEPES/Tris, pH 7.4, at a concentration of 25 mg/ml.
Then, 16 μl of this membrane suspension was added to 340 μl of 50 mM Tris/HCl buffer, pH 7.4, containing 10 μM calcium chloride, 10 μM magnesium chloride, 0.1 mM PMSF, 1 μM pepstatin A, 2 μM leupeptin, 1 mM 1,10-phenanthroline and 0.1% bovine serum albumin. To this suspension, 4 μl of (A) endothelin-1 (for nonspecific binding: 0.2 μM as the final concentration), (B) buffer solution A (for total control binding), or (C) a test compound (1.1 μM as the final concentration), was added. Further, to each suspension, 40 μl of ^125 I-endothelin-1 (12000-18000 cpm) was added. These mixtures were incubated at 25° C for 4 hours, then subjected to filtration on a glass filter GF/C and then washed with 5 mM HEPES/Tris, pH 7.4, containing 0.3% bovine serum albumin. Then, the radioactivity trapped by the glass filter was measured, and the ^125 I-endothelin-1 binding inhibition D (%) at 1.1 μM of the test compound was determined by the following equation. [formula] Each test was performed in triplicate.

| 125I-endothelin-1 binding inhibition, Inhibition (%) | Compound |
| --- | --- |
| 80% | cyclo(-DTrp-DAsp-Pro-DtertLeu-Leu-) [Example 71] |
| 84% | cyclo(-DTrp-DCys(O3 Na)-Pro-DThg-Leu-) [Example 76] |

| Compound | 125I-endothelin-1 binding inhibition, Inhibition (%) |
| --- | --- |
| cyclo([dW][dD]P[dV]L) [Example 30] | 72% |

Same assay, conditions: 1.1 μM of the test compound; porcine aorta smooth muscle membrane; 25° C, 4 hours; read-out: 125I-endothelin-1 binding inhibition, Inhibition (%)

| inhibition at 1.1 µM | Compound |
| --- | --- |
| 75% | CC(C)C[C@@H]1NC(=O)[C@@H](C(C)C)NC(=O)[C@H](CO)NC(=O)[C@@H](CC(=O)O)NC(=O)[C@@H](Cc2c[nH]c3ccccc23)NC1=O [Example 26, cyclo(-DTrp-DAsp-Ser-DVal-Leu-)] (cyclo(L[dW][dD]S[dV])) |
| 34% | CC(C)C[C@@H]1NC(=O)[C@@H](C(C)C)NC(=O)[C@@H]2CCCN2C(=O)[C@@H](CC(=O)O)NC(=O)[C@@H](Cc2cn(C(=O)OC(C)(C)C)c3ccccc23)NC1=O [Example 87, cyclo(-DTrp(COO^t Bu)-DAsp-Pro-DVal-leu-)] (cyclo(L[dW](Boc)[dD]P[dV])) |
| 85% | CSCC[C@H]1C(=O)N[C@H](C(C)C)C(=O)N[C@@H](CC(C)C)C(=O)N[C@H](Cc2c[nH]c3ccccc23)C(=O)N[C@H](CC(=O)O)C(=O)N1C [Example 70, cyclo(-DTrp-DAsp-MeMet-DVal-Leu-)] (cyclo(L[dW][dD][NMeM][dV])) |
| 65% | CC(C)C[C@@H]1NC(=O)[C@@H](C(C)C)NC(=O)[C@H](CCCCNC=O)NC(=O)[C@@H](CC(=O)O)NC(=O)[C@@H](Cc2c[nH]c3ccccc23)NC1=O [Example 57, cyclo(-DTrp-DAsp-Lys(CHO)-DVal-Leu-)] (cyclo(K(For)[dV]L[dW][dD])) |
| 18% | CC(C)[C@H]1NC(=O)[C@H](C)NC(=O)[C@@H](CC(=O)O)NC(=O)[C@@H](Cc2c[nH]c3ccccc23)NC(=O)[C@@H]2CCCN2C1=O [Example 39, cyclo(-DTrp-DAsp-Ala-DVal-Pro-)] (cyclo(A[dV]P[dW][dD])) |
| 65% | CC(C)C[C@@H]1NC(=O)[C@@H](C(C)C)NC(=O)[C@H](CCCN)NC(=O)[C@@H](CC(=O)O)NC(=O)[C@@H](Cc2c[nH]c3ccccc23)NC1=O [Example 20, cyclo(-DTrp-DAsp-Orn-DVal-Leu-)] (cyclo(L[dW][dD][Orn][dV])) |
| 85% | CC(C)C[C@@H]1NC(=O)[C@@H](c2cccs2)NC(=O)CN(C(C)C)C(=O)[C@@H](CC(=O)O)NC(=O)[C@@H](Cc2c[nH]c3ccccc23)NC1=O [Example 78, cyclo(-DTrp-DAsp-^i PrGly-DThg-Leu-)] (cyclo(L[dW][dD][N(iPr)Gly][dGly(2-thienyl)])) |
| 81% | CSCC[C@@H]1NC(=O)[C@@H](CC(=O)O)NC(=O)[C@@H](Cc2cn(C=O)c3ccccc23)NC(=O)[C@H](CC(C)C)NC(=O)[C@@H](C(C)C)NC1=O [Example 55, cyclo(-DTrp(CHO)-DAsp-Met-DVal-Leu-)] (cyclo(L[dW](For)[dD]M[dV])) |
| 69% | CC(C)C[C@@H]1NC(=O)[C@@H](C(C)C)NC(=O)[C@H](Cc2c[nH]cn2)NC(=O)[C@@H](CC(=O)O)NC(=O)[C@@H](Cc2c[nH]c3ccccc23)NC1=O [Example 18, cyclo(-DTrp-DAsp-His-DVal-Leu-)] (cyclo(H[dV]L[dW][dD])) |
| 77% | CC(C)C[C@@H]1NC(=O)[C@@H](C(C)C)NC(=O)[C@H](Cc2ccc(O)cc2)NC(=O)[C@@H](CC(=O)O)NC(=O)[C@@H](Cc2c[nH]c3ccccc23)NC1=O [Example 16, cyclo(-DTrp-DAsp-Tyr-DVal-Leu-)] (cyclo(L[dW][dD]Y[dV])) |
| 82% | CC(C)C[C@@H]1NC(=O)[C@@H](c2cccs2)NC(=O)[C@@H]2CCCN2C(=O)[C@@H](CC(=O)O)NC(=O)[C@@H](Cc2c[nH]c3ccccc23)NC1=O [Example 67, cyclo(-DTrp-DAsp-Pro-DThg-Leu-)] (cyclo(L[dW][dD]P[dGly(2-thienyl)])) |
| 84% | CC(C)C[C@@H]1NC(=O)[C@@H](C(C)C)NC(=O)[C@H](CC[S+](C)[O-])NC(=O)[C@@H](CC(=O)O)NC(=O)[C@@H](Cc2cn(C=O)c3ccccc23)NC1=O (stereo partly drawn) [Example 58, cyclo(-DTrp(CHO)-DAsp-Met(O)-DVal-Leu-)] (cyclo(L[dW](For)[dD][Met(O)][dV])) |
| 89% | CC(C)C[C@@H]1NC(=O)[C@@H](C2=CCC=CC2)NC(=O)[C@@H]2CCCN2C(=O)[C@@H](CC(=O)O)NC(=O)[C@@H](Cc2c[nH]c3ccccc23)NC1=O [Example 74, cyclo(-DTrp-DAsp-Pro-DDpg-Leu-)] (cyclo(L[dW][dD]P[X5])) |
| 35% | COC(=O)Cn1cc(C[C@H]2NC(=O)[C@H](CC(C)C)NC(=O)[C@@H](C(C)C)NC(=O)[C@@H]3CCCN3C(=O)[C@@H](CC(=O)O)NC2=O)c2ccccc21 [Example 90, cyclo(-DTrp(CH2 COOCH3)-DAsp-Pro-DVal-Leu-)] (cyclo(L[X6][dD]P[dV])) |
| 66% | CC(C)C[C@@H]1NC(=O)[C@@H](C(C)C)NC(=O)C(C)(C)NC(=O)[C@@H](CC(=O)O)NC(=O)[C@@H](Cc2c[nH]c3ccccc23)NC1=O [Example 61, cyclo(-DTrp-DAsp-Aib-DVal-Leu-)] (cyclo([Aib][dV]L[dW][dD])) |
| 77% | CCCC[C@H]1NC(=O)[C@@H]2CCCN2C(=O)[C@@H](CC(=O)O)NC(=O)[C@@H](Cc2c[nH]c3ccccc23)NC(=O)[C@H](CC(C)C)NC1=O [Example 33, cyclo(-DTrp-DAsp-Pro-DNle-Leu-)] (cyclo(L[dW][dD]P[dNle])) |
| 15% | CC(C)C[C@@H]1NC(=O)[C@@H]([C@H](C)O)NC(=O)[C@H](C)NC(=O)[C@@H](CC(=O)O)NC(=O)[C@@H](Cc2c[nH]c3ccccc23)NC1=O [Example 29, cyclo(-DTrp-DAsp-Ala-DThr-Leu-)] (cyclo(A[dT]L[dW][dD])) |
| 78% | CC(C)C[C@@H]1NC(=O)[C@@H](C(C)C)NC(=O)[C@@H]2CCCN2C(=O)[C@@H](CC(=O)O)NC(=O)[C@@H](CC2C(=O)Nc3ccccc32)NC1=O (stereo partly drawn) [Example 88, cyclo(-DTrp(O)-Dsp-Pro-DVal-Leu-)] (cyclo(L[X4][dD]P[dV])) |
| 85% | CCC[C@@H]1NC(=O)[C@@H](C(C)C)NC(=O)[C@@H]2CCCN2C(=O)[C@@H](CC(=O)O)NC(=O)[C@@H](Cc2c[nH]c3ccccc23)NC1=O [Example 45, cyclo(-DTrp-DAsp-Pro-DVal-Nva-)] (cyclo([Nva][dW][dD]P[dV])) |
| 71% | CC(C)C[C@@H]1NC(=O)[C@@H](C(C)C)NC(=O)[C@H](Cc2ccccc2)NC(=O)[C@@H](CC(=O)O)NC(=O)[C@@H](Cc2c[nH]c3ccccc23)NC1=O [Example 48, cyclo(-DTrp-DAsp-Phe-DVal-Leu-)] (cyclo(F[dV]L[dW][dD])) |
| 74% | CC(C)C[C@@H]1NC(=O)[C@@H](C(C)C)NC(=O)CNC(=O)[C@@H](CC(=O)O)NC(=O)[C@@H](Cc2c[nH]c3ccccc23)NC1=O [Example 11, cyclo(-DTrp-DAsp-Gly-DVal-Leu-)] (cyclo(G[dV]L[dW][dD])) |
| 86% | CC(C)C[C@@H]1NC(=O)[C@@H](C2CCCC2)NC(=O)[C@@H]2CCCN2C(=O)[C@@H](CC(=O)O)NC(=O)[C@@H](Cc2c[nH]c3ccccc23)NC1=O [Example 81, cyclo(-DTrp-DAsp-Pro-DCpg-Leu-)] (cyclo(L[dW][dD]P[dGly(cPent)])) |
| 38% | CSCC[C@@H]1NC(=O)[C@@H](C(C)C)NC(=O)[C@H](CO)NC(=O)[C@@H](CC(=O)O)NC(=O)[C@@H](Cc2c[nH]c3ccccc23)NC1=O [Example 37, cyclo(-DTrp-DAsp-Ser-DVal-Met-)] (cyclo(M[dW][dD]S[dV])) |
